Experimental data reported in paper PMC3248976 (Bioorganic & medicinal chemistry letters, 2011).

What was measured:
Assay type in all cases: cell-based
[1] = molecular target: T1, S1P4-R (human Endothelial Differentiation Gene 6; EDG6) (Homo sapiens, UniProt O95977); experiment: Tango S1P4-BLA U2OS beta-arrestin/beta-lactamase reporter agonist assay; conditions: for S1P4-R agonist activity in words: concentrations up to 25 μM; for fold decrease in potency compared to the hit 2 / fold more potent than the hit 2: S1P4-R EC50 ratio vs hit 2; for fold less potent than 22p: S1P4-R EC50 ratio vs 22p
T1 sequence (O95977 1-384): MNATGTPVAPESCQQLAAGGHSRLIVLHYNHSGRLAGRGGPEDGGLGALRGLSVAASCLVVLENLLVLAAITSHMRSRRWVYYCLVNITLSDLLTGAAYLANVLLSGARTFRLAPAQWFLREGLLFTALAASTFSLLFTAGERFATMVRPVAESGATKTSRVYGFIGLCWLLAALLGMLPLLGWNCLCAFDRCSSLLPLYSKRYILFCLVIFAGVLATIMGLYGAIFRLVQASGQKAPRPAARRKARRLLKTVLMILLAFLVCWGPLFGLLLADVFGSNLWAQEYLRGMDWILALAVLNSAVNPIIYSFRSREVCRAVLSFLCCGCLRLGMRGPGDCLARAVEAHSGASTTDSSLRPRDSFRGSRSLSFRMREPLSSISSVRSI

S1P5-R = S1P5-R (Homo sapiens, UniProt Q9H228); experiment: S1P1–3,5-Rs selectivity counter screen, S1P5-R; conditions: mean of n = 3; NA = not active at concentrations up to 25 μM
S1P2-R = S1P2-R (Homo sapiens, UniProt O95136); experiment: S1P1–3,5-Rs selectivity counter screen, S1P2-R; conditions: mean of n = 3; NA = not active at concentrations up to 25 μM
S1P3-R = S1P3-R (Homo sapiens, UniProt Q99500); experiment: S1P1–3,5-Rs selectivity counter screen, S1P3-R; conditions: mean of n = 3; NA = not active at concentrations up to 25 μM
S1P1-R = S1P1-R (Homo sapiens, UniProt P21453); experiment: S1P1–3,5-Rs selectivity counter screen, S1P1-R; conditions: mean of n = 3; NA = not active at concentrations up to 25 μM
S1P1-R, sequence (P21453 whole entry): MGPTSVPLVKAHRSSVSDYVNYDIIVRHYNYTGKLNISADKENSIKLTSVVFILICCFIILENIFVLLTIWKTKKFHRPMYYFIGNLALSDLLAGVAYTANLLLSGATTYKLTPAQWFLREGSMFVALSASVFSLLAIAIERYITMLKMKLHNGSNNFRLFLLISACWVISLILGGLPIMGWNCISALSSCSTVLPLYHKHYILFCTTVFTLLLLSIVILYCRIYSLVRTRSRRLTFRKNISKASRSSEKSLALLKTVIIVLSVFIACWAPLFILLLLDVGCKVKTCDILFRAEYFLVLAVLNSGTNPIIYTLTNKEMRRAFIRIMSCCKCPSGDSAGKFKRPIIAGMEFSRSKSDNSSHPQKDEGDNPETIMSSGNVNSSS

S1P3-R, sequence (Q99500 whole entry): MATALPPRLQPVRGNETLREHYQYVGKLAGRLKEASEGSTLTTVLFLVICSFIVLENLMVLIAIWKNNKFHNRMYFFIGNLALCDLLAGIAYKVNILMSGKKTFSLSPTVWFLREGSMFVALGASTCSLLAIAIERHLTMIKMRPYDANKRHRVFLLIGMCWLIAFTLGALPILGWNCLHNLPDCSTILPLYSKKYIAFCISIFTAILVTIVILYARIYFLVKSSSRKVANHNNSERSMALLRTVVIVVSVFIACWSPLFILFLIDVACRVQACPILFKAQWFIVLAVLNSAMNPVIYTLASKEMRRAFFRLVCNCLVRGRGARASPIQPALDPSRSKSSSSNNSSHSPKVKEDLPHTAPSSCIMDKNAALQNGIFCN
S1P5-R, sequence (Q9H228 whole entry): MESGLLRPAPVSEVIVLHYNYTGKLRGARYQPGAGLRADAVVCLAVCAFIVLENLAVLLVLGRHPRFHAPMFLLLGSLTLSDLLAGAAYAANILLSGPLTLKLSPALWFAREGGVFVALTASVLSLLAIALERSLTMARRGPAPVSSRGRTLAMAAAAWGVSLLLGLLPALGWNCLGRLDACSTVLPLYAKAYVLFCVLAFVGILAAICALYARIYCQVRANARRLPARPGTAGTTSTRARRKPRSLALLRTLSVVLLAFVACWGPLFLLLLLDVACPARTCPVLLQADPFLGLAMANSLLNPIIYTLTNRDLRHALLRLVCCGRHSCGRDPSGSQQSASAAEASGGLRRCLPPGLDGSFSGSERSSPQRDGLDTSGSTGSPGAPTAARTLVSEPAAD
S1P2-R, sequence (O95136 whole entry): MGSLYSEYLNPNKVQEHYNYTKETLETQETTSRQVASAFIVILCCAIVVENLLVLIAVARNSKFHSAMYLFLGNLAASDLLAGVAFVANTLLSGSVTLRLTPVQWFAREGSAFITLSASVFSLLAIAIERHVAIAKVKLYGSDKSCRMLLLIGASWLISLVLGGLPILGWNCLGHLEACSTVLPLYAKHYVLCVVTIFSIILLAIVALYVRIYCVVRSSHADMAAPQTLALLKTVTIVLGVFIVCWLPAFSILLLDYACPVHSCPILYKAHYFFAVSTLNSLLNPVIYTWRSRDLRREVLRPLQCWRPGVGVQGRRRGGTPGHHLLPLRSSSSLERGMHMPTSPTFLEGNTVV

Cc1ccc(OCCOc2ccccc2Cl)c([N+](=O)[O-])n1 [8a]
S1P4-R agonist activity in words [1]: complete loss of activity

Cc1ccc(OCCOc2ccc(Cl)cc2)c([N+](=O)[O-])n1 [8b]
S1P4-R agonist activity in words [1]: complete loss of activity

Cc1ccc(OCCOc2ccccc2)c([N+](=O)[O-])n1 [8f]
S1P4-R agonist activity in words [1]: complete loss of activity

Cc1ccc(OCCOc2cc(Cl)cc([N+](=O)[O-])c2)c([N+](=O)[O-])n1 [8q]
fold decrease in potency compared to the hit 2 [1]: 22 fold

Cc1ccc(OCCOc2ccc(Br)cc2C(F)(F)F)c([N+](=O)[O-])n1 [8r]
fold less potent than 8h ([1]; S1P4-R EC50 ratio vs 2-chloro analog 8h): 3 fold

Cc1ccc(OCCOc2c(Cl)cc(Cl)cc2Cl)c([N+](=O)[O-])n1 [8s]
fold decrease in potency compared to the hit 2 [1]: 3 fold

Cc1ccc(OCCCOc2ccc(Cl)cc2Cl)c([N+](=O)[O-])n1 [13a]
S1P4-R agonist activity in words [1]: complete loss of activity

Cc1ccc(OCCCc2ccc(Cl)cc2Cl)c([N+](=O)[O-])n1 [13b]
fold decrease in potency compared to the hit 2 [1]: 5–6 fold

Cc1ccc(OC(=O)COc2ccc(Cl)cc2Cl)c([N+](=O)[O-])n1 [13d]
S1P4-R agonist activity in words [1]: complete loss of activity

O=[N+]([O-])c1ncccc1OCCOc1ccc(Cl)cc1Cl [22a]
fold decrease in potency compared to the hit 2 [1]: 18 fold

FCc1ccc(OCCOc2ccc(Cl)cc2Cl)c(Cl)n1 [22aa]
fold more potent than the hit 2 [1]: 3.5 fold

Cc1ccc(OCCOc2ccc(Cl)cc2Cl)c([N+](=O)[O-])c1 [22c]
fold decrease in potency compared to the hit 2 [1]: 8 fold

O=[N+]([O-])c1nc(Cl)ccc1OCCOc1ccc(Cl)cc1Cl [22d]
fold decrease in potency compared to the hit 2 [1]: 2 fold

Cc1ccc(OCCOc2ccc(Cl)cc2Cl)c(Br)n1 [22l]
fold more potent than the hit 2 [1]: 3 fold

Clc1ccc(OCCOc2ccc(Br)nc2Br)c(Cl)c1 [22n]
fold more potent than the hit 2 [1]: 3 fold

Fc1ccc(OCCOc2ccc(Cl)cc2Cl)c(Br)n1 [22o]
fold less potent than 22l ([1]; S1P4-R EC50 ratio vs 22l): 4 fold | fold more potent than 22m ([1]; S1P4-R EC50 ratio vs 22m): 6 fold

OCc1ccc(OCCOc2ccc(Cl)cc2Cl)c(I)n1 [22t]
fold less potent than 22p [1]: 4 fold

O=Cc1ccc(OCCOc2ccc(Cl)cc2Cl)c(I)n1 [22u]
fold less potent than 22p [1]: 38 fold

OCc1ccc(OCCOc2ccc(Cl)cc2Cl)c(Cl)n1 [22v]
fold less active than the 2-iodine counterpart 22t ([1]; S1P4-R EC50 ratio vs 22t): 5 fold

Cc1ccc(OCCOc2ccc(Cl)cc2Cl)c([N+](=O)[O-])n1 [compound 2, 3-(2-(2,4-dichlorophenoxy)ethoxy)-6-methyl-2-nitropyridine]
EC50 nM, S1P5-R (S1P5-R): no agonistic activity | EC50 nM, S1P2-R (S1P2-R): no agonistic activity | EC50 nM, S1P3-R (S1P3-R): no agonistic activity | EC50 nM, S1P1-R (S1P1-R): no agonistic activity
